Measured values taken from patent US4649137A, “2-acylaminomethyl-1,4-benzodiazepine compounds, the preparation thereof, and pharmaceutical compositions containing them” (Kali-Chemie Pharma GmbH, priority 1981, dated 1987).

How the values were obtained:
rat = experiment: Arthritis pain test on the rat (inhibition of the arthritis pain); type: in vivo, rat (male, strain OFA); details: p.o., 3 hours after oral dosage
Experimental: ARTHRITIS PAIN TEST ON THE RAT
Male rats of the strain OFA with a weight of 160-180 g. are anaesthetised by administration of 20 mg./kg. i.p. of phenobarbital sodium. 0.1 ml. of a suspension of Mycobacterium Smegmae (S1043) in paraffin oil (0.6 mg. of Mycobact./0.1 ml. of oil) are injected intracutaneously into the left rear paw. 14 days later, when a marked secondary arthritis has developed, particularly in the right rear paw, the effects of the test substances are investigated. 30 minutes before administration of the test substances, a control measurement in undertaken in which the ankle joint of the right rear paw is flexed three times and the number of sounds given out is counted. […] 3 hours after oral dosage of the test substance, the flexion procedure is repeated. Animals which either give out sound only once or not at all are regarded as being protected against pain. Between 9 and 20 rats are used per dose and the ED50 (95% confidence range) is determined by the method of Litchfield and Wilcoxon) (1949). The ED50 is designated at that dose which produces protection in 50% of the animals treated.

mouse [1] = experiment: Tail flick ray test on the mouse; type: in vivo; details: sc, 0.5 h, s.c., 30 minutes after administration
Experimental: TAIL FLICK RAY TEST ON THE MOUSE
The method is based on the procedure described by D'Amour and Smith (1941). However, non-fasting male and female mice having body weights of 16-25 g. are used instead of rats. 30 minutes before treatment with the test substance, each mouse is placed alone in a cylindrical vessel such that it cannot turn round and move forward. Its tail, lying in a narrow groove, projects out of the vessel. A particular point on the tail of each animal (at about 35 mm. from the root of the tail) is subjected to the radiant heat from a lamp of known intensity and temperature which is situated directly beneath the tail. The time in seconds required by the mouse to flick the tail out of the ray of light is determined twice, once 30 and once 15 minutes before subcutaneous administration of the test substance (10 mg./kg.). The mice for which the reaction times deviate by more than 25% are eliminated. The reaction times are again measured 15 and 30 minutes after treatment and an increase in the reaction times of more than 75% of the average values before treatment of the same mouse is regarded as an analgesic effect. The ED50 (95% confidence range) of each test substance 30 minutes after administration is regarded as that dose which increases the reaction time before treatment by more than 75% in 50% of the animals. The calculation is carried out in accordance with the method of Litchfield and Wilcoxon (1949).

mouse [2] = experiment: Determination of the minimum toxic dose; type: in vivo, mouse (male); details: p.o.; maximum dose 300 mg/kg; symptoms recorded for 24 hours
Experimental: DETERMINATION OF THE MINIMUM TOXIC DOSE
Maximum doses of 300 mg/kg. of the test substance are administered orally to male mice of 20-25 g. weight. The animals are observed carefully for toxicity symptoms for 3 hours. In addition, all symptoms and cases of death are recorded for a period of 24 hours after administration. Accompanying symptoms are also observed and recorded. If death- or toxic symptoms are observed, decreasing doses are administered to additional mice until no more toxic symptoms occur. The lowest dose which induces toxic symptoms is reported as the minimum toxic dose.

CN1c2ccccc2C(c2ccsc2)=NCC1CNC(=O)c1ccoc1 (stereo not shown) [Example 1, 1-Methyl-2-[(furan-3-carbonyl)-aminomethyl]-5-(3'-thienyl)-1H-2,3-dihydro-1,4-benzodiazepine]
ED50 (rat): 32 to 56 mg/kg | ED50 (mouse [1]): 1 mg/kg | Minimum toxic dose in the mouse (mouse [2]): 200 mg/kg

COc1ccc2c(c1)N(C)C(CNC(=O)c1ccccc1)CN=C2c1ccsc1 (stereo not shown) [Example 5, 8-Methoxy-1-methyl-2-benzoylaminomethyl-5-(3'-thienyl)-1H-2,3-dihydro-1,4-benzodiazepine]
ED50 (rat): ~10 mg/kg | ED50 (mouse [1]): 2.7 mg/kg | Minimum toxic dose in the mouse (mouse [2]): 300 mg/kg

CN1c2ccccc2C(c2ccsc2)=NCC1CNC(=O)c1ccc(C(F)(F)F)cc1 (stereo not shown) [Example 6, 1-Methyl-2-[(4'-trifluoromethylbenzoyl)-aminomethyl]-5-(3'-thienyl)-1H-2,3-dihydro-1,4-benzodiazepine]
ED50 (rat): 2 mg/kg | Minimum toxic dose in the mouse (mouse [2]): 300 mg/kg

CN1c2ccccc2C(c2ccsc2)=NCC1CNC(=O)c1ccc(C#N)cc1 (stereo not shown) [Example 7, 1-Methyl-2-[(4-cyanobenzoyl)-aminomethyl]-5-(3'-thienyl)-1H-2,3-dihydro-1,4-benzodiazepine]
ED50 (rat): 8.5 mg/kg | Minimum toxic dose in the mouse (mouse [2]): > 300 mg/kg

CN1c2ccccc2C(c2ccsc2)=NCC1CNC(=O)c1ccccc1 (stereo not shown) [Example 11]
ED50 (rat): ~2 mg/kg | ED50 (mouse [1]): 2.8 mg/kg | Minimum toxic dose in the mouse (mouse [2]): 300 mg/kg

COc1ccc2c(c1)N(C)C(CNC(=O)c1ccc(C(F)(F)F)cc1)CN=C2c1ccsc1 (stereo not shown) [Example 12]
ED50 (rat): 32 mg/kg | Minimum toxic dose in the mouse (mouse [2]): > 300 mg/kg

COc1ccc2c(c1)N(C)C(CNC(=O)c1ccsc1)CN=C2c1ccsc1 (stereo not shown) [Example 13]
ED50 (rat): 32 to 56 mg/kg | ED50 (mouse [1]): 10 mg/kg | Minimum toxic dose in the mouse (mouse [2]): 200 mg/kg

CN1c2cc3c(cc2C(c2ccsc2)=NCC1CNC(=O)c1cccs1)OCO3 (stereo not shown) [Example 14]
ED50 (rat): 32 to 56 mg/kg | ED50 (mouse [1]): 5 mg/kg | Minimum toxic dose in the mouse (mouse [2]): 100 mg/kg

CN1c2ccccc2C(c2ccc(Cl)s2)=NCC1CNC(=O)c1ccc(C#N)cc1 (stereo not shown) [Example 84]
ED50 (rat): 18 mg/kg | Minimum toxic dose in the mouse (mouse [2]): > 300 mg/kg

Cc1ccsc1C1=NCC(CNC(=O)c2ccoc2)N(C)c2ccccc21 (stereo not shown) [Example 87]
ED50 (rat): 18 to 32 mg/kg | ED50 (mouse [1]): 2.6 mg/kg

Cc1ccsc1C1=NCC(CNC(=O)c2ccccc2)N(C)c2ccccc21 (stereo not shown) [Example 88]
ED50 (rat): 18 to 32 mg/kg | ED50 (mouse [1]): 8.3 mg/kg

Cc1ccsc1C1=NCC(CNC(=O)c2ccc(C#N)cc2)N(C)c2ccccc21 (stereo not shown) [Example 89]
ED50 (rat): 10 mg/kg
